Experimental data reported in patent US20160039936A1, “FIBROBLAST GROWTH FACTOR RECEPTOR INHIBITION FOR THE TREATMENT OF DISEASE” (UNIVERSITY OF MIAMI, priority 2011, published 2016).
“Also recorded” adds a separate entry of the source.

B1: FGF21: endocrine fibroblast growth factor 21 (protein, UniProt Q9NSA1 29-209, looked up)
Fibroblast growth factor 21: HPIPDSSPLLQFGGQVRQRYLYTDDAQQTEAHLEIREDGTVGGAADQSPESLLQLKALKPGVIQILGVKTSRFLCQRPDGALYGSLHFDPEACSFRELLLEDGYNVYQSEAHGLPLHLPGNKSPHRDPAPRGPARFLPLPGLPPALPEPPGILAPQPPDVGSSDPLSMVGPSQGRSPSYAS

Experiments:
[1] = test system: isolated neonatal rat ventricular cardiac myocytes (NRVM); test: Surface area (hypertrophy) of isolated NRVM, immunocytochemistry and morphometry (Examples 1-2); assay type: cell-based; conditions: for FGF2-induced increase in cell surface area (hypertrophy) in presence of inhibitor: 48 h FGF2, inhibitor pre-treated 60 min at Table 2 concentration; for FGF23-induced increase in cell surface area (hypertrophy) in presence of inhibitor: 48 h FGF23, inhibitor pre-treated 60 min at Table 2 concentration; for cell surface area: 48 h incubation with the FGF alone
Description: NRVM were isolated using a standard isolation system (Worthington Biochemical Corporation) (Toraason et al., Toxicology, 56(1):107-117, 1989). Hearts from 1-2 day old Sprague Dawley rats (Charles River) were harvested, minced in calcium- and magnesium-free Hank's Balanced Salt Solution (HBSS), and the tissue digested with 50 μg/ml trypsin at 4° C. for 20-24 hours. Soybean trypsin inhibitor in HBSS was added and the tissue was further digested with collagenase (in Leibovitz L-15 medium) under slow rotation (15 rpm) at 37° C. for 45 minutes. Cells were released by gently triturating the suspension 20 times with a standard 10 ml plastic serological pipette and filtering it twice through a cell strainer (70 μm, BD Falcon). Cells were incubated at room temperature for 20 minutes and spun at 100 g for 5 minutes. The cell pellet was resuspended in plating medium [Dulbecco's Modified Eagle Medium (DMEM; Cellgro) with 17% Media 199 (Invitrogen), 15% fetal bovine serum (FBS; Invitrogen) and 1% penicillin/streptomycin solution (P/S; Invitrogen)]. Cells were counted using a hemocytometer.
Cells were plated on glass and plastic surfaces which were coated with laminin (Invitrogen; 10μg/ml in PBS) at room temperature for 1 hour prior to plating. For immunofluorescence analysis, 1×10^6 cells were seeded per well on glass coverslips in 6-well plates. For protein and RNA isolation, 2×10^6 cells were seeded in 6 cm-culture dishes. Cells were left undisturbed in plating medium at 37° C. for 72 hours and then cultured in maintenance medium (DMEM with 20% Media 199, 1% insulin-transferrin-sodium selenite solution (ITS; Sigma-Aldrich) and 1% P/S) in the presence of 100 μM 5-bromo-2′-deoxyuridine (BrdU; Sigam-Aldrich) to eliminate proliferating non-myocytes resulting in a relatively pure population of isolated cardiac myocytes (Bishopric et al., 1987). After 4 days, isolated cardiac myocytes were cultured in BrdU-containing maintenance medium in the presence of recombinant murine FGF23 (26.1 kDa, 251 amino acids; R&D Systems) or FGF2 (16.2 kDa, 144 amino acids; R&D Systems) for 48 hours.
We analyzed isolated NRVM on laminin-coated glass coverslips by immunocytochemsitry according to our established protocols (Faul et al., Cell Biol., 169(3):415-424, 2005; Faul et al., Cell Biol., 27(23):8215-8227, 2007). The mouse monoclonal antibody against sarcomeric α-actinin (EA-53; Sigma-Aldrich) was used at 1:1000 and Cy3-conjugated goat-anti mouse (Jackson Immuno Research) as secondary antibody at 1:750. To visualize nuclei, fixed cells were incubated with 4′,6-diamidino-2-phenylindole (DAPI; 400 ng/ml in PBS) for 5 minutes. Immunofluorescence images were taken on a Leica TCS-SP5 confocal microscope with a 63× oil objective with a 1.6× zoom. Leica AF6000 fluorescence software was used to measure the cell surface area based on α-actinin-positive staining.
To assess the signaling pathways involved in FGF23- and FGF2-mediated hypertrophy, we analyzed the morphometry of plated cells that were pre-treated with specific inhibitors for 60 minutes prior to the addition of the FGFs at varying concentrations.

C57BL/6 mice = test: Intravenous injection of FGFs (with or without Fc-FGFR decoy receptors) in mice; assay type: in vivo, mouse; conditions: 40 μg/kg FGF, ten times over five days
Description: Twelve-week old adult C57BL/6 mice underwent tail vein injections using standard protocols as previously described for the systemic delivery of plasmid DNA (Faul et al., 2008). Briefly, mice were placed in a restrainer and 40 μg/kg of FGF23 dissolved in 200 μl of PBS were injected into the tail vein of 5 mice twice daily with eight hours in between injections for 5 consecutive days. Four mice underwent the same injection schedule using 200 μl of PBS alone as negative control. On the morning of the 6th day, 16 hours after the final tail vein injections, animals were sacrificed and the hearts were isolated and prepared using the same protocol as described above.
Short-axis cardiac sections were used to quantify myocardial thickness by measuring the distance from the inner to the outer myocardial zone at the mid-chamber zone. […] Since klothro-ablated kl/kl mice display severe growth retardation with small hearts (Kuro-o et al., Nature, 390(6655):45-51, 1997), we also measured relative wall thickness calculated as two times the anterior wall thickness divided by left ventricular internal diameter. Total RNA was isolated from flash frozen hearts using TRIzol (Invitrogen) and RT-PCR analyses were performed as described above.
We measured cross-sectional surface area of cardiac myocytes in paraffin-embedded short-axis sections of the heart. Briefly, 7 μm thick sections were deparaffinized according to our established protocols. To specifically label cardiac myocytes, we used mouse monoclonal MF20 antibody against sarcomeric myosin at 1:200 and Cy5-conjugated donkey-anti mouse (Invitrogen) as secondary antibody at 1:400. To visualize nuclei, fixed tissue was incubated with 4′,6-diamidino-2-phenylindole (DAPI; 400 ng/ml in PBS) for 5 minutes. To visualize cellular borders, fixed tissue was incubated with wheat germ agglutinin (WGA) conjugated to Alexa Fluor 555 (Invitrogen) at 1 mg/ml in PBS containing 10 mM sodium azide. Immunofluorescence images were taken on a Leica TCS-SP5 confocal microscope with a 63× oil objective. Leica AF6000 fluorescence software was used to quantify cross-sectional cell surface area of 25 cells per field at four fields along the mid-chamber free wall based on WGA-positive staining.
Next, we wanted to determine the effectiveness of this FGFR trapping system on FGF-induced LVH in mice. To our knowledge, Fc decoy receptors have not yet been used to study FGFR function in vivo in any biological context, but served as valuable tools to analyze the functions of other receptor tyrosine kinases, like receptors for vascular endothelial growth factor (VEGFR) and their role in tumor growth and metastasis. We used similar Fc-FGFR concentrations as described for Fc-VEGFR in animal models of cancer (Lin J et al., Cancer Res. 2005; 65(15):6901-9).

[2] = test system: neonatal mouse ventricular myocytes (NMVM); test: Hypertrophic growth and β-MHC of isolated NMVM (wild-type or FGFR4−/−); assay type: cell-based; conditions: 48 h
Description: NMVM were isolated enzymatically (Kreusser et al., 2014). Briefly, hearts from 1-3 day-old mice were harvested, minced in PBS/glucose and further digested with collagenase type 2 (0.2% w/v) and DNase (0.05% w/v) on a rotary shaker at 37° C. for 11 minutes. Cells were then released from the tissue by triturating the suspension twice with a standard 10 ml plastic serological pipette, transferred to DF10 medium (Dulbecco's Modified Eagle Medium/Ham's Nutrient Mixture F12 adjusted to 17 mM NaHCO2 containing 2 mM L-glutamine, 1% P/S and 10% FBS), and stored on ice. The remaining tissue was further incubated in PBS/glucose/collagenase/DNase solution on a rotary shaker at 37° C. for 11 minutes. The trituration and incubation steps were repeated 5-7 times until the tissue was completely dissolved. Cells were pelleted at 300 g for 5 minutes, resuspended in DF20 media (Dulbecco's Modified Eagle Medium/Ham's Nutrient Mixture F12 adjusted to 17 mM NaHCO2 containing 2 mM L-glutamine, 1% P/S and 20% FBS), and preplated for 1 hour to eliminate fibroblasts. Remaining cells were counted using a hemocytometer and plated on glass and plastic surfaces, which were coated with laminin (Sigma-Aldrich; 10 μg/ml in PBS) at room temperature for 1 hour prior to plating. For immunofluorescence analysis, 3×10^5 cells were seeded per well on glass coverslips in 24-well plates. For Western blot analyses of total protein extracts, 5×10^6 cells were seeded in 10 cm-culture dishes. Cells were left undisturbed in DF20 medium at 37° C. for 72 hours, starved overnight with DF medium (Dulbecco's Modified Eagle Medium/Ham's Nutrient Mixture F12 adjusted to 17 mM NaHCO2 containing 2 mM L-glutamine, 1% P/S), and treated in DF medium with recombinant FGF23, FGF2 (both at 100 ng/ml) or AngII (1 μM, Sigma-Aldrich) for 48 hours.
HEK293 cells, NRVM or NMVM were treated with growth factors for 30 minutes to analyze activation of signal transduction mediators, or for 48 hours to analyze expression levels of hypertrophic marker proteins. Cells were scraped from 6-well plates using 500 μl CHAPS extraction buffer (20 mM Tris-HCl pH7.5, 500 mM NaCl, 0.5% CHAPS, protease inhibitor cocktail (Roche), protein phosphatase inhibitors [Sigma-Aldrich]) and incubated on ice for 30 minutes. The cell lysate was centrifuged at 14,000 rpm and 4° C. for 30 minutes, and the supernatant boiled in sample buffer and analyzed by SDS-PAGE and immunoblotting. For protein extraction from mouse hearts, tissue was isolated, minced and homogenized in RIPA extraction buffer (50 mM Tris-HCl pH 7.5, 200 mM NaCl, 1% Triton X-100, 0.25% DOC, 1 mM EDTA, 1 mM EGTA, protease and phosphatase inhibitors) at 1:10 (w:v), and protein lysates were prepared as described above.
Cultured cells were fixed in 2% PFA (in 5 mg/ml sucrose) for 5 minutes and permeabilized in 1% Triton X-100 (in PBS) for 10 minutes. We analyzed hypertrophic growth of isolated NRVM and NMVM on laminin-coated glass coverslips after 48 hours of treatment with growth factors. For FGFR4 expression and localization analyses, untreated NMVM from wild-type and FGFR4^−/− mice were immunolabeled. The mouse monoclonal antibody against sarcomeric α-actinin (EA-53; Sigma-Aldrich) was used at 1:1,000, and rabbit polyclonal anti-FGFR4 (C-16; Santa Cruz) at 1:50. Cy3-conjugated goat-anti mouse and Alexa488-conjugated goat-anti rabbit (Jackson Immuno Research) were used as secondary antibodies at 1:300. To visualize nuclei, fixed cells were incubated with 4′,6-diamidino-2-phenylindole (DAPI; 400 ng/ml in PBS) for 10 minutes. Immunofluorescence images were taken on a Leica TCS-SP5 confocal microscope with a 63× oil objective.
Myocyte cross-sectional area was measured based on α-actinin-positive staining using Leica AF6000 fluorescence software. […]

Row | Molecule | FGF2-induced increase in cell surface area (hypertrophy) in presence of inhibitor [1] | FGF23-induced increase in cell surface area (hypertrophy) in presence of inhibitor [1] | cell surface area [1] | other results
1 | O=c1[nH]c2ccccc2n1C1CCN(Cc2ccc(-c3nc4cc5nc[nH]c5cc4nc3-c3ccccc3)cc2)CC1 [A6730] | partially attenuated | did not significantly alter | – | –
2 | COc1cccc(-c2cc(=O)c3ccccc3o2)c1N [PD98059] | completely prevented | only partially diminished | – | –
3 | N#CC(=C(/N)Sc1ccccc1N)/C(C#N)=C(\N)Sc1ccccc1N [U0126] | completely prevented | only partially diminished | – | –
4 | COc1ccc2c(c1)CC[C@@H]1[C@@H]2CC[C@]2(C)[C@@H](NCCCCCCN3C(=O)C=CC3=O)CC[C@@H]12 [U73122] | had no effect | attenuated | – | –
5 | FGF4 | – | – | no change in size; also recorded: did not induce a hypertrophic response | –
6 | FGF19: endocrine fibroblast growth factor 19 | – | – | significant dose-dependent increase | induction of LVH (C57BL/6 mice): significant induction of LVH
7 | angiotensin (Ang) II [AngII, pro-hypertrophic angiotensin II (Sigma-Aldrich), reference compound] | – | – | – | expression of β-MHC protein in FGFR4−/− NMVM ([2]; immunoblot): induced this effect; expression of β-MHC protein in wild-type NMVM ([2]; immunoblot): increased expression; cross-sectional area (size) of NMVM from FGFR4−/− mice ([2]; FGF 100 ng/ml, AngII 1 μM): increase the size; cross-sectional area of wild-type NMVM ([2]; FGF 100 ng/ml, AngII 1 μM): significant increases
8 | B1 | – | – | significant dose-dependent increase | induction of LVH (C57BL/6 mice): significant induction of LVH
